Measured values: the NIST ThermoML archive (doi:10.1016/j.tca.2006.06.018)
Numbers after ± are expanded uncertainties.

Key:
[1] = DTA
[2] = Molar enthalpy of transition or fusion; conditions: DSC

SMILES: CCCCCCCCOCn1cc[n+](COCCCCCCCC)c1.O=S(=O)([N-]S(=O)(=O)C(F)(F)F)C(F)(F)F
- Triple point temperature ([1]; Crystal 1): 287.7 ± 2.1 K
- Molar enthalpy of transition or fusion ([2]; Crystal 1): 8.17 ± 0.229 kcal/mol

SMILES: CCCC[N+](C)(C)CCO.[Br-] [N-(2-hydroxyethyl)-N,N-dimethylbutanaminium bromide]
- Triple point temperature ([1]; Crystal 1): 359.3 ± 2.1 K
- Triple point temperature ([1]; Metastable crystal): 187.3 ± 0.5 K
- Molar enthalpy of transition or fusion ([2]; Crystal 1): 3.16 ± 0.105 kcal/mol

SMILES: CCCCCCCCCCOn1cc[n+](OCCCCCCCCCC)c1C.O=S(=O)([N-]S(=O)(=O)C(F)(F)F)C(F)(F)F
- Triple point temperature ([1]; Crystal 1): 303.1 ± 2.1 K
- Molar enthalpy of transition or fusion ([2]; Crystal 1): 19 ± 0.502 kcal/mol

SMILES: CCCCOCn1cc[n+](COCCCC)c1.F[B-](F)(F)F [1,3-bis(butoxymethyl)-1H-imidazolium tetrafluoroborate]
- Triple point temperature ([1]; Crystal 1): 281.4 ± 2.1 K
- Triple point temperature ([1]; Crystal 2): 267.4 ± 0.5 K
- Molar enthalpy of transition or fusion ([2]; Crystal 1): 2.04 ± 0.0789 kcal/mol
- Molar enthalpy of transition or fusion ([2]; Crystal 2): 2.6 ± 0.0908 kcal/mol

SMILES: CC[N+](C)(C)CCO.F[P-](F)(F)(F)(F)F
- Triple point temperature ([1]; Crystal 1): 272 ± 2.1 K
- Molar enthalpy of transition or fusion ([2]; Crystal 1): 2.53 ± 0.0908 kcal/mol

SMILES: CC[N+](C)(C)CCO.F[B-](F)(F)F
- Triple point temperature ([1]; Crystal 1): 426.8 ± 2.1 K
- Triple point temperature ([1]; Crystal 2): 311.5 ± 0.5 K
- Triple point temperature ([1]; Crystal 3): 252.8 ± 0.5 K
- Triple point temperature ([1]; Metastable crystal): 146 ± 1 K
- Molar enthalpy of transition or fusion ([2]; Crystal 1): 1.23 ± 0.0598 kcal/mol
- Molar enthalpy of transition or fusion ([2]; Crystal 2): 0.28 ± 0.0382 kcal/mol
- Molar enthalpy of transition or fusion ([2]; Crystal 3): 0.731 ± 0.0478 kcal/mol

SMILES: CC[N+](C)(C)CCO.N#C[N-]C#N [N-ethyl-2-hydroxyethyl-N,N-dimethylammonium dicyanamide]
- Triple point temperature ([1]; Crystal 1): 282.7 ± 2.1 K
- Triple point temperature ([1]; Metastable crystal): 168.4 ± 0.5 K
- Molar enthalpy of transition or fusion ([2]; Crystal 1): 2.06 ± 0.0789 kcal/mol
